Test systems include HCC-2998 colon; EKVX NSCLC; K-562 leukemia; LOX IMVI melanoma; RXF-631 renal; UACC-62 melanoma; CAKI-1 renal; HS 578T breast; KM20L2 colon; KM12 colon; DU-145 prostate; OVCAR-4 ovarian.
Assay in all cases: NCI anticancer screen, dose series, 48 h

Molecules are shown by their SMILES. Values joined by “and” are separate entries in the source; they are usually repeats but may differ in a detail not shown here. Equal values may be shown once.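 Method: 48-hour compound exposure of cells in 96-well plates, five concentrations, linear interpolation of endpoints. GI50: concentration for 50% inhibition of growth. TGI: concentration producing complete growth inhibition.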

Among the data in PubChem BioAssay (NCI) are GI50 and TGI values, retold here.

In the case of `O=C1/C(=C/c2ccc(Cl)c(Cl)c2)CN(C(=O)CCN2CCOCC2)C/C1=C\c1ccc(Cl)c(Cl)c1`, the GI50 is 0.773 µM in the assay on HCC-2998 colon; 1.37 µM in the assay on EKVX NSCLC; 0.259 µM and 0.315 µM in the assay on K-562 leukemia; 1.99 µM in the assay with RXF-631 renal; 1.92 µM in the assay with UACC-62 melanoma; 0.579 µM in the assay with CAKI-1 renal. The GI50 in the assay on KM20L2 colon is 1.82 µM; with OVCAR-4 ovarian it was 1.56 µM. Moreover, the TGI was 3.56 µM and 2.08 µM in the assay with HCC-2998 colon; 4.35 µM and 6.41 µM and 3.09 µM with EKVX NSCLC; 0.585 µM and 2.99 µM with K-562 leukemia; 1.15 µM with LOX IMVI melanoma; 8.25 µM and 5.87 µM with RXF-631 renal; 3.27 µM and 4.9 µM in the assay on UACC-62 melanoma. In addition, the TGI in the assay on CAKI-1 renal is 3.4 µM and 3.53 µM and 2.03 µM; in the assay on HS 578T breast, above 10 µM; with KM20L2 colon, 2.79 µM and 4.01 µM; with KM12 colon it was 0.137 µM and 1.27 µM and 0.326 µM; in the assay with DU-145 prostate it was 0.148 µM.
